The target of the assay is T1, SC I+III2 (complex I, NADH/FMN site) (Ovis aries, UniProt Z9LRO2FUZ7).
T1 construct: native supercomplex I+III2 from heart mitochondria, LMNG-extracted, amphipol A8-35 stabilised; complex I has 45 subunits, ~1 MDa; with NADH dehydrogenase [ubiquinone] flavoprotein 2, mitochondrial; NADH-ubiquinone oxidoreductase 75 kDa subunit, mitochondrial; NADH dehydrogenase [ubiquinone] iron-sulfur protein 2, mitochondrial; NADH dehydrogenase [ubiquinone] iron-sulfur protein 7, mitochondrial; NADH-ubiquinone oxidoreductase chain 1; Cytochrome b
Description: cryoEM structure, […] Å focused map of CI peripheral arm. Format: binding. The conditions noted are these: native cofactor.

For the molecule `Cc1cc2nc3c(=O)[nH]c(=O)nc-3n(C[C@H](O)[C@H](O)[C@H](O)COP(=O)(O)O)c2cc1C` [FMN], the “cryoEM structure, 3.8 Å focused map of CI peripheral arm” value is “The FMN, FeS clusters, and heme groups are shown colored by atom”.

These data come from publication PMC6926478, “Structures of Respiratory Supercomplex I+III2 Reveal Functional and Conformational Crosstalk” (Molecular Cell, 2019).
